The source made the active and inactive calls. The calls are words filed in the database; no cut-off is given here.
Legend:
HCC 2998 = experiment: Growth inhibition of human HCC2998 cells assessed as cell growth at 10 uM incubated for 48 hrs by sulforhodamine B assay; format: functional; details: HCC 2998, 48 h, read-out: Activity
HCT-116 = experiment: Growth inhibition of human HCT116 cells assessed as cell growth at 10 uM incubated for 48 hrs by sulforhodamine B assay; format: functional; details: HCT-116, 48 h, read-out: Activity
[1] = biological target: Serine-protein kinase ATM (Homo sapiens) (UniProt Q13315); experiment: Inhibition of ATM in human U2OS cells assessed as reduction in etoposide-induced Chk-2 phosphorylation at Thr68 residue at 10 uM preincubated for 1 hr followed by etoposide challenge measured after 20 mins by Western blot analysis; format: cell-based
Sequence of Serine-protein kinase ATM (Homo sapiens) (Q13315 whole entry): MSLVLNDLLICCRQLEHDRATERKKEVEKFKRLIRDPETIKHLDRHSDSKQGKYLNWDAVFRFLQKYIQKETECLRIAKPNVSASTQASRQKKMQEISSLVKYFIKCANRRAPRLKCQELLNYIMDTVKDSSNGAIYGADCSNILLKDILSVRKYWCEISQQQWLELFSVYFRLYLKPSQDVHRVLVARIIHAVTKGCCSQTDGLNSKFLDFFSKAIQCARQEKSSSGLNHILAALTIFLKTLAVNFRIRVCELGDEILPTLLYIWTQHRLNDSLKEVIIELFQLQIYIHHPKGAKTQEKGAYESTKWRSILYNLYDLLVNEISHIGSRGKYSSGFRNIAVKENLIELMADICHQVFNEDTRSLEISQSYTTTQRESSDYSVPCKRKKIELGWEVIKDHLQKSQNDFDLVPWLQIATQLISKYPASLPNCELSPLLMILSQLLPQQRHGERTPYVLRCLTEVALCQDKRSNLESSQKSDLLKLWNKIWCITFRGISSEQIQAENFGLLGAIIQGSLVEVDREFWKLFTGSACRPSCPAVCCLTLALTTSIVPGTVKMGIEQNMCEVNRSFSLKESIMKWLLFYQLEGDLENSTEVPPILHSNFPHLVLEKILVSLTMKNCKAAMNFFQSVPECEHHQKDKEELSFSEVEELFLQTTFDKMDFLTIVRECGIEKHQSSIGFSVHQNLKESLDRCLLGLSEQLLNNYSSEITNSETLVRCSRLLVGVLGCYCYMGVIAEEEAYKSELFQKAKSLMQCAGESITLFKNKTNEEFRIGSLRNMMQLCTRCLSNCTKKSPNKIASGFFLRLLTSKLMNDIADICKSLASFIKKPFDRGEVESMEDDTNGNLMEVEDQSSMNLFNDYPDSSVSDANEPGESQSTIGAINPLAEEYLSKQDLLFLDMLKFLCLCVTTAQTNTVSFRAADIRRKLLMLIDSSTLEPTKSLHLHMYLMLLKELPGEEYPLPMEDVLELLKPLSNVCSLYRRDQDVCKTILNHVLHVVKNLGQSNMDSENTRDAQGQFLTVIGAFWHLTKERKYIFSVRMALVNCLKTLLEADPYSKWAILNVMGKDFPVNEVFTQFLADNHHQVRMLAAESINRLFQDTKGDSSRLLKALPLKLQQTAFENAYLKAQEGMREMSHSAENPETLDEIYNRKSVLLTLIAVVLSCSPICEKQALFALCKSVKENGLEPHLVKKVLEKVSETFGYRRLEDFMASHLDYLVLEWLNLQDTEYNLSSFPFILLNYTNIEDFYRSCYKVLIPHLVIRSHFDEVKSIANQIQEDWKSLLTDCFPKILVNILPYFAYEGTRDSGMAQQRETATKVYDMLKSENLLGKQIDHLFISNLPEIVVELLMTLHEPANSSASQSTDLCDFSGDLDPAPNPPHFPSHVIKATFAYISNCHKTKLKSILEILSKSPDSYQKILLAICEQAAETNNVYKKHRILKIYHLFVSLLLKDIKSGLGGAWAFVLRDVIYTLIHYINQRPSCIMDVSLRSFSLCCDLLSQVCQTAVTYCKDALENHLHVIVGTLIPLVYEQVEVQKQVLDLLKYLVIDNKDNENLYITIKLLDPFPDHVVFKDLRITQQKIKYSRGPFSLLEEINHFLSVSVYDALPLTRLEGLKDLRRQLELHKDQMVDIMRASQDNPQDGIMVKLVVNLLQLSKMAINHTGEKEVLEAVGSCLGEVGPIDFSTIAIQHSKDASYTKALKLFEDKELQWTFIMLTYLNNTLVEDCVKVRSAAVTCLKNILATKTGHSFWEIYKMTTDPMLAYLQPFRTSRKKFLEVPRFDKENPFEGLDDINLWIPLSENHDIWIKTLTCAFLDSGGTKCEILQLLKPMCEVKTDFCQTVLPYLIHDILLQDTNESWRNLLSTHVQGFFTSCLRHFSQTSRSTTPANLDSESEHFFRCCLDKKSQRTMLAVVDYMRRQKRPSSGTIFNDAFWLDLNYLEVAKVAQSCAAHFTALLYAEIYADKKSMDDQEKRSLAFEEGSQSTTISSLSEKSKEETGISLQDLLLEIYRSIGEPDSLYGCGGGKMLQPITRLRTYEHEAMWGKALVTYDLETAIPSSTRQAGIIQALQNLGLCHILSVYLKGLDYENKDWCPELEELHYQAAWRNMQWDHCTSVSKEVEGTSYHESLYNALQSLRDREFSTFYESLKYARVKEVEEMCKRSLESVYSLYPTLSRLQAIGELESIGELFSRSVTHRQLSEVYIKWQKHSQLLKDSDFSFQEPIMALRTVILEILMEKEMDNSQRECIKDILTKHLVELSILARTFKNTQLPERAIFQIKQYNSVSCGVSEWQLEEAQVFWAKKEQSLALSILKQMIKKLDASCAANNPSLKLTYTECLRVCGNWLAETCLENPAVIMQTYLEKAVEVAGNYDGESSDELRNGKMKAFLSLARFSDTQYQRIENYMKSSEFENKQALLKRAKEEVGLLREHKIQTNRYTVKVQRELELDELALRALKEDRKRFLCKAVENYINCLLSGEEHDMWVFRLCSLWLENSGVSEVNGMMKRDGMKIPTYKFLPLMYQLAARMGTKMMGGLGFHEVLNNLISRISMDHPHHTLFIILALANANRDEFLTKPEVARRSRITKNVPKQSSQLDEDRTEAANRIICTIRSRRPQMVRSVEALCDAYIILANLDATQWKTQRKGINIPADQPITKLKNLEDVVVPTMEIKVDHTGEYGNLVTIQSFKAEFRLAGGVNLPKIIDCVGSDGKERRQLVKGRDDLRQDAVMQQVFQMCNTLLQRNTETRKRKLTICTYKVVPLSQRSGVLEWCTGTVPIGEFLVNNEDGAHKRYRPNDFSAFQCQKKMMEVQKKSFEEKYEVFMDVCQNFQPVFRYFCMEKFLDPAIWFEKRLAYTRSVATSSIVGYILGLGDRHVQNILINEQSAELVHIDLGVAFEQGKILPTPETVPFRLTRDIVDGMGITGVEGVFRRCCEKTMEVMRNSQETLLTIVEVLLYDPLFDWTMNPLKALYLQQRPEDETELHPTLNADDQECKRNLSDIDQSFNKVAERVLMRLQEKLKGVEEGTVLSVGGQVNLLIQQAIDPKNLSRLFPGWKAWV

SMILES | growth at 10 µM (HCC 2998) [%] | growth at 10 µM (HCT-116) [%] | inhibition [1]
C/S(=N\C#N)c1ccc(-c2cnc(N)c(C(=O)Nc3ccccc3)n2)cc1 (stereo unspecified) | 109 | 73.1 | inactive
CS(=O)(=NC#N)c1ccc(-c2cnc(N)c(C(=O)Nc3ccccc3)n2)cc1 (stereo unspecified) | 105 | 86.8 | inactive
